Values of other authors as cited in paper PMC11665553, “12-Lipoxygenase inhibition delays onset of autoimmune diabetes in human gene replacement mice” (JCI Insight, 2024).

Legend:
[1] = design: method as in PMID 28842399; conditions: cited from earlier work
NOD mice = system: NOD mice; design: method as in PMID 28842399; conditions: cited from earlier work

Compound	Off-target cytotoxicity [1]	Effect in NOD mice (NOD mice)
CC(=O)NC(c1cccs1)c1cc(Br)c2cccnc2c1O (centres unmarked) [ML127]	evidence of off-target cytotoxicity	
CNc1oc(-c2cccc3ccccc23)nc1C#N [ML351]		reductions in insulitis and improvements in glucose homeostasis
